Values joined by “and” are separate entries in the source; they are usually repeats but may differ in a detail not shown here. Equal entries are not always repeated. Inconclusive results and toxic doses are left out. The calls were made as follows: active = survival T/C of 150% or more; inactive = T/C below 125% in these data.
Tested on: BDF1 mice, P388 leukemia ip, median survival T/C
Assay: NCI In Vivo Anticancer Drug Screen. Data for tumor model P388 Leukemia (intraperitoneal) in B6D2F1 (BDF1) mice
Conditions: endpoint: median survival time, higher = longer survival
Procedure, shortened: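 Reported as T/C, where T is the survival measurement in dosed animals and C the same measurement in vehicle controls.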

[1] = dose: 100.0 mg/kg/injection, schedule: Q04DX003 (ip), vehicle: Klucel (hydroxypropylcellulose) (HPC)

Measured: T/C

CCCCC(CC)CCC(O)CC(C)C (configuration not stated)
inactive: dose: 50.0 mg/kg/injection, schedule: Q01DX009 (ip), vehicle: Klucel (hydroxypropylcellulose) (HPC) 100 % of control | dose: 100.0 mg/kg/injection, schedule: Q01DX009 (ip), vehicle: Klucel (hydroxypropylcellulose) (HPC) 95 % of control | [1] 104 % of control | dose: 200.0 mg/kg/injection, schedule: Q01DX009 (ip), vehicle: Klucel (hydroxypropylcellulose) (HPC) 100 % of control | dose: 200.0 mg/kg/injection, schedule: Q04DX003 (ip), vehicle: Klucel (hydroxypropylcellulose) (HPC) 100 % of control | dose: 400.0 mg/kg/injection, schedule: Q04DX003 (ip), vehicle: Klucel (hydroxypropylcellulose) (HPC) 100 % of control

Cc1c(C#N)c2n(c1C)CCN2
inactive: dose: 6.0 mg/kg/injection, schedule: Q01DX009 (ip), vehicle: Klucel (hydroxypropylcellulose) (HPC) 104 % of control | dose: 12.0 mg/kg/injection, schedule: Q01DX009 (ip), vehicle: Klucel (hydroxypropylcellulose) (HPC) 86 % of control | dose: 25.0 mg/kg/injection, schedule: Q01DX009 (ip), vehicle: Klucel (hydroxypropylcellulose) (HPC) 92 % of control and 100 % of control | dose: 25.0 mg/kg/injection, schedule: Q04DX003 (ip), vehicle: Klucel (hydroxypropylcellulose) (HPC) 95 % of control | dose: 50.0 mg/kg/injection, schedule: Q04DX003 (ip), vehicle: Klucel (hydroxypropylcellulose) (HPC) 100 % of control | [1] 108 % of control

C=C(C)C12OC3(c4ccccc4)OC1C1C4OC4(CO)C(O)C4(O)C(=O)C(C)=CC4C1(O3)C(C)C2OC(=O)/C=C/C=C/c1ccccc1 (configuration not stated)
active: dose: 0.5 mg/kg/injection, schedule: Q01DX009 (ip), vehicle: saline + alcohol 156 % of control | dose: 25.0 micrograms/kg/injection, schedule: Q01DX009 (ip), vehicle: saline with Tween-80 200 % of control | dose: 50.0 micrograms/kg/injection, schedule: Q01DX009 (ip), vehicle: saline + alcohol 155 % of control
inactive: dose: 0.01 mg/kg/injection, schedule: Q01DX009 (ip), vehicle: saline + alcohol 115 % of control | dose: 0.02 mg/kg/injection, schedule: Q01DX009 (ip), vehicle: saline + alcohol 94 % of control | dose: 0.03 mg/kg/injection, schedule: Q01DX009 (ip), vehicle: saline + alcohol 123 % of control | dose: 3.1 micrograms/kg/injection, schedule: Q01DX009 (ip), vehicle: saline + alcohol 123 % of control | dose: 6.0 micrograms/kg/injection, schedule: Q01DX009 (ip), vehicle: saline + alcohol 101 % of control | dose: 6.3 micrograms/kg/injection, schedule: Q01DX009 (ip), vehicle: saline + alcohol 104 % of control | dose: 12.5 micrograms/kg/injection, schedule: Q01DX009 (ip), vehicle: saline + alcohol 123 % of control | dose: 25.0 micrograms/kg/injection, schedule: Q01DX009 (ip), vehicle: gum acacia 121 % of control | dose: 25.0 micrograms/kg/injection, schedule: Q01DX009 (ip), vehicle: saline + alcohol 124 % of control | dose: 50.0 micrograms/kg/injection, schedule: Q01DX009 (ip), vehicle: gum acacia 90 % of control | dose: 50.0 micrograms/kg/injection, schedule: Q01DX009 (ip), vehicle: saline with Tween-80 92 % of control | dose: 100.0 micrograms/kg/injection, schedule: Q01DX009 (ip), vehicle: saline with Tween-80 88 % of control

CC1=C(O)C(=O)C(C2=C(O)C(=O)C(C)=C(O)C2=O)=C(O)C1=O
inactive: dose: 0.63 mg/kg/injection, schedule: Q01DX010 (ip), vehicle: saline 100 % of control | dose: 1.25 mg/kg/injection, schedule: Q01DX010 (ip), vehicle: saline 100 % of control | dose: 62.5 micrograms/kg/injection, schedule: Q01DX001 (ip), vehicle: saline 118 % of control | dose: 125.0 micrograms/kg/injection, schedule: Q01DX001 (ip), vehicle: saline 90 % of control | dose: 250.0 micrograms/kg/injection, schedule: Q01DX001 (ip), vehicle: saline 100 % of control | dose: 500.0 micrograms/kg/injection, schedule: Q01DX001 (ip), vehicle: saline 100 % of control | dose: 1000.0 micrograms/kg/injection, schedule: Q01DX001 (ip), vehicle: saline 100 % of control

O=C(Nc1ccc(F)cc1)C12CC3CC(CC(C3)C1)C2
inactive: dose: 50.0 mg/kg/injection, schedule: Q01DX009 (ip), vehicle: saline with Tween-80 92 % of control | dose: 100.0 mg/kg/injection, schedule: Q01DX009 (ip), vehicle: saline with Tween-80 92 % of control | dose: 200.0 mg/kg/injection, schedule: Q01DX009 (ip), vehicle: saline with Tween-80 92 % of control

Reference: PubChem BioAssay AID328 (DTP/NCI, 2004)
